The record followed here is ChEMBL document CHEMBL2062415, “Steroids from Commiphora mukul display antiproliferative effect against human prostate cancer PC3 cells via induction of apoptosis” (Bioorg Med Chem Lett, 2012).

The subject of assay [1] is PC-3. Briefly: Induction of apoptosis in human PC3 cells assessed as necrotic cells at 20 uM after 48 hrs by annexinV/propidium iodide staining-based FITC analysis relative to control. The assay is classed as functional.
Assay [2] relates to PC-3. Description: Induction of apoptosis in human PC3 cells assessed as early apoptotic cells at 10 uM after 48 hrs by annexinV/propidium iodide staining-based FITC analysis relative to control. The assay is classed as functional.
For another assay, the system named is DU-145. Description: Cytotoxicity against human DU145 cells after 24 hrs by MTT assay. The assay is classed as functional, cell-based. To be noted: DU-145, 24 h. A general note: Tetrazolium assays rely on reduction of a dye to a coloured formazan, in cell work by metabolically active cells.
The subject of assay [3] is PC-3. Description: Cell cycle arrest in human PC3 cells assessed as accumulation at G2/M phase at 10 uM after 48 hrs by propidium iodide staining-based flow cytometric analysis relative to control. The assay is classed as functional. For orientation: In flow cytometry, cells or beads pass a laser one at a time.
Assay [4] deals with K562. Description: Cytotoxicity against human K562 cells after 24 hrs by MTT assay. The assay is classed as functional, cell-based. To be noted: K562, 24 h.
The subject of assay [5] is PC-3. Description: Cell cycle arrest in human PC3 cells assessed as accumulation at G0/G1 phase at 20 uM after 48 hrs by propidium iodide staining-based flow cytometric analysis relative to control. The assay is classed as functional.
The subject of assay [6] is MCF7. Briefly: Cytotoxicity against human MCF7 cells assessed as cell viability at 10 uM after 24 hrs by MTT assay. The assay is classed as functional. To be noted: MCF7, 24 h, read-out: Activity.
Assay [7] concerns PC-3. Briefly: Cell cycle arrest in human PC3 cells assessed as accumulation at S phase at 10 uM after 48 hrs by propidium iodide staining-based flow cytometric analysis relative to control. The assay is classed as functional.
The test system of assay [8] is PC-3. Briefly: Induction of apoptosis in human PC3 cells assessed as late apoptotic cells at 10 uM after 48 hrs by annexinV/propidium iodide staining-based FITC analysis relative to control. The assay is classed as functional.
The test system of assay [9] is MCF7. Briefly: Cytotoxicity against human MCF7 cells after 24 hrs by MTT assay. The assay is classed as functional, cell-based. To be noted: MCF7, 24 h.
Assay [10] concerns PC-3. Briefly: Induction of apoptosis in human PC3 cells assessed as early apoptotic cells at 40 uM after 48 hrs by annexinV/propidium iodide staining-based FITC analysis relative to control. The assay is classed as functional.
In assay [11] the test system is PC-3. Description: Induction of apoptosis in human PC3 cells assessed as late apoptotic cells at 40 uM after 48 hrs by annexinV/propidium iodide staining-based FITC analysis relative to control. The assay is classed as functional.
The subject of assay [12] is PC-3. Description: Cell cycle arrest in human PC3 cells assessed as accumulation at S phase at 40 uM after 48 hrs by propidium iodide staining-based flow cytometric analysis relative to control. The assay is classed as functional.
Assay [13] concerns K562. Description: Cytotoxicity against human K562 cells assessed as cell viability at 10 uM after 24 hrs by MTT assay. The assay is classed as functional. To be noted: K562, 24 h, read-out: Activity.
The test system of assay [14] is PC-3. Description: Cell cycle arrest in human PC3 cells assessed as accumulation at G0/G1 phase at 10 uM after 48 hrs by propidium iodide staining-based flow cytometric analysis relative to control. The assay is classed as functional.
Assay [15] has as its system PC-3. Briefly: Cell cycle arrest in human PC3 cells assessed as accumulation at G2/M phase at 20 uM after 48 hrs by propidium iodide staining-based flow cytometric analysis relative to control. The assay is classed as functional.
For assay [16], the system named is PC-3. Briefly: Induction of apoptosis in human PC3 cells assessed as early apoptotic cells at 20 uM after 48 hrs by annexinV/propidium iodide staining-based FITC analysis relative to control. The assay is classed as functional.
The test system of assay [17] is PC-3. Briefly: Cell cycle arrest in human PC3 cells assessed as accumulation at G2/M phase at 40 uM after 48 hrs by propidium iodide staining-based flow cytometric analysis relative to control. The assay is classed as functional.
Assay [18] relates to PC-3. Briefly: Induction of apoptosis in human PC3 cells assessed as necrotic cells at 10 uM after 48 hrs by annexinV/propidium iodide staining-based FITC analysis relative to control. The assay is classed as functional.
The subject of assay [19] is PC-3. Description: Cytotoxicity against human PC3 cells after 24 hrs by MTT assay. The assay is classed as functional, cell-based. To be noted: PC-3, 24 h.
The test system of assay [20] is PC-3. Briefly: Induction of apoptosis in human PC3 cells assessed as late apoptotic cells at 20 uM after 48 hrs by annexinV/propidium iodide staining-based FITC analysis relative to control. The assay is classed as functional.
Assay [21] deals with PC-3. Briefly: Cytotoxicity against human PC3 cells assessed as cell viability at 10 uM after 24 hrs by MTT assay. The assay is classed as functional. To be noted: PC-3, 24 h, read-out: Activity.
Assay [22] deals with PC-3. Description: Induction of apoptosis in human PC3 cells assessed as necrotic cells at 40 uM after 48 hrs by annexinV/propidium iodide staining-based FITC analysis relative to control. The assay is classed as functional.
Assay [23] relates to PC-3. Briefly: Cell cycle arrest in human PC3 cells assessed as accumulation at G0/G1 phase at 40 uM after 48 hrs by propidium iodide staining-based flow cytometric analysis relative to control. The assay is classed as functional.
The subject of assay [24] is PC-3. Briefly: Cell cycle arrest in human PC3 cells assessed as accumulation at S phase at 20 uM after 48 hrs by propidium iodide staining-based flow cytometric analysis relative to control. The assay is classed as functional.
Assay [25] relates to PC-3. Briefly: Cell cycle arrest in human PC3 cells assessed as accumulation at G0/G1 phase after 48 hrs by propidium iodide staining-based flow cytometric analysis. The assay is classed as functional.
Assay [26] relates to PC-3. Briefly: Cell cycle arrest in human PC3 cells assessed as accumulation at S phase at 30 uM after 48 hrs by propidium iodide staining-based flow cytometric analysis relative to control. The assay is classed as functional.
For assay [27], the system named is PC-3. Description: Induction of apoptosis in human PC3 cells assessed as late apoptotic cells at 30 uM after 48 hrs by annexinV/propidium iodide staining-based FITC analysis relative to control. The assay is classed as functional.
The test system of assay [28] is PC-3. Briefly: Induction of apoptosis in human PC3 cells assessed as necrotic cells at 30 uM after 48 hrs by annexinV/propidium iodide staining-based FITC analysis relative to control. The assay is classed as functional.
Assay [29] concerns PC-3. Description: Cell cycle arrest in human PC3 cells assessed as accumulation at G2/M phase at 30 uM after 48 hrs by propidium iodide staining-based flow cytometric analysis relative to control. The assay is classed as functional.
The subject of assay [30] is PC-3. Briefly: Induction of apoptosis in human PC3 cells assessed as early apoptotic cells at 30 uM after 48 hrs by annexinV/propidium iodide staining-based FITC analysis relative to control. The assay is classed as functional.
For assay [31], the system named is PC-3. Description: Cell cycle arrest in human PC3 cells assessed as accumulation at G0/G1 phase at 30 uM after 48 hrs by propidium iodide staining-based flow cytometric analysis relative to control. The assay is classed as functional.

The structures appear in SMILES notation.

What is called IC50 is the midpoint of a concentration-inhibition curve. The low end stands for greater potency in that assay, the high end for weaker potency in that assay.

On to `CC[C@H](/C=C/[C@@H](C)[C@H]1CC[C@H]2[C@@H]3CC=C4C[C@@H](O)CC[C@]4(C)[C@H]3CC[C@]12C)C(C)C` [STIGMASTEROL], for which the Activity in the assay on PC-3 [1] is on record as 1.51%; in the assay on PC-3 [2] it was 2.78%; in the assay with PC-3 [3], 21.03%; in the assay with PC-3 [5], 51.41%; in the assay with PC-3 [7] it was 26.9%; in the assay on PC-3 [8], 3.18%. Besides, the Activity with PC-3 [10] came to 2.73%; with PC-3 [11] it was 5.42%; with PC-3 [12], 36.4%; in the assay on PC-3 [14] it was 52.07%; in the assay on PC-3 [15], 18.19%; with PC-3 [16], 2.3%. The Activity in the assay with PC-3 [17] is on record as 21.03%; in the assay on PC-3 [18], 1.05%; in the assay with PC-3 [20] it was 3.77%; in the assay with PC-3 [22], 2.07%; with PC-3 [23], 50.58%; with PC-3 [24], 30.4%. The IC50 came to 22.7 µM with DU-145, 11.1 µM in the assay on K562 [4], 21.4 µM in the assay on MCF7 [9] and 18.3 µM in the assay with PC-3 [19]. The viability at 10 µM stood at 68% in the assay on MCF7 [6], 43% in the assay with K562 [13] and 60% in the assay with PC-3 [21].

Regarding `COc1cccc2c1C(=O)c1c(O)c3c(c(O)c1C2=O)C[C@@](O)(C(=O)CO)C[C@@H]3O[C@H]1C[C@H](N)[C@H](O)[C@H](C)O1` [DOXORUBICIN], the IC50 in the assay on DU-145 was 13.2 µM; with K562 [4] it was 3.79 µM; in the assay on MCF7 [9] it was 1.37 µM; in the assay on PC-3 [19] it was 8.46 µM.

Turning to `C/C=C1\C(=O)C[C@H]2[C@@H]3CCC4=CC(=O)CC[C@]4(C)[C@H]3CC[C@]12C` [GUGGULSTERONE], the viability at 10 µM in the assay on MCF7 [6] turned out to be 65%; in the assay on K562 [13], 84%; with PC-3 [21], 80%.

Regarding `CC[C@H](/C=C/[C@@H](C)[C@H]1CC[C@H]2[C@@H]3CC=C4C[C@@H](O)CC[C@]4(C)[C@H]3[C@H](O)C[C@]12C)C(C)C`, the Activity with PC-3 [1] was 0.96%; in the assay with PC-3 [25], “Dose-dependent effect”; with PC-3 [26], 16.4%; in the assay with PC-3 [5] it was 59.89%; with PC-3 [10] it was 1.32%; with PC-3 [27] it was 2.95%. Also, the Activity is on record as 2.49% in the assay with PC-3 [11]; 1.41% with PC-3 [28]; 11.24% in the assay with PC-3 [12]; 18.47% in the assay with PC-3 [15]; 1.77% with PC-3 [16]; 13.33% in the assay with PC-3 [29]. In addition, the Activity was determined as 12.39% with PC-3 [17]; 1.91% in the assay on PC-3 [20]; 1.52% with PC-3 [22]; 76.37% in the assay with PC-3 [23]; 1.14% in the assay with PC-3 [30]; 21.63% with PC-3 [24]. In addition, the Activity in the assay on PC-3 [31] came to 70.27%. The IC50 in the assay on DU-145 was 46.8 µM; in the assay on K562 [4], 7.18 µM; with MCF7 [9], 13.5 µM; with PC-3 [19] it was 32.4 µM. In addition, the viability at 10 µM in the assay with MCF7 [6] was 68%; with K562 [13], 43%; with PC-3 [21], 94.5%.
